13 molecules from US9108983B2, “Pyrrole compounds, a process for their preparation and pharmaceutical compositions containing them” (LES LABORATOIRES SERVIER, priority 2013, dated 2015) can be followed below.

Structures can show the parent of a compound that is named as a salt.

The test system of test [1] is RS4;11 leukaemia tumour line. The test can be described thus: In vitro cytotoxicity (Microculture Tetrazolium Assay). The format is cell-based. The note with it: Homo sapiens, RS4-11, 48 h, RS4;11 cells, exposed for 48 hours, cell viability; read-out: IC50 (nM) MTT RS4;11. The protocol:
The cytotoxicity studies were carried out on the RS4;11 leukaemia tumour line.
The cells are distributed onto microplates and exposed to the test compounds for 48 hours.
The cell viability is then quantified by a colorimetric assay, the Microculture Tetrazolium Assay (Cancer Res., 1987, 47, 939-942).

The target in the next test is Bcl-2 protein (histag-Bcl-2, UniProtKB P10415) (Homo sapiens (Human), UniProt P10415). The test can be described thus: Inhibition of Bcl-2 by the fluorescence polarisation technique. The format is binding. The note with it: incubation for 2 hours, read-out: IC50 (nM) Bcl-2 FP. The essentials:
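In pH 7.4 buffer (Hepes 10 mM, NaCl 150 mM, Tween20 0.05%), test compounds at increasing concentrations competed with a fluorescein peptide (1.00×10^−8 M final) for histag-Bcl-2 (2.50×10^−8 M final). Readout was fluorescence polarisation after a 2 h incubation.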
In general terms: In fluorescence polarisation assays a small probe gives low polarisation when free and higher when bound to something large.

Chain of Bcl-2 protein (P10415 whole entry): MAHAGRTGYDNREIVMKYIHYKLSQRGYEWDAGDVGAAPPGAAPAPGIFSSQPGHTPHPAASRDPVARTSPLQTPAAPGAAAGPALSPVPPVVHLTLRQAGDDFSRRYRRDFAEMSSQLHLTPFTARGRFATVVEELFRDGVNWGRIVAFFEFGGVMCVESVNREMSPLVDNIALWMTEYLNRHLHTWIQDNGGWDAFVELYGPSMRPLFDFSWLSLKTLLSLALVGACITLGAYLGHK

As for `Cc1c(C(=O)N(c2ccc(O)cc2)c2cc(C#N)ccn2)cc(-c2cc(Cl)ccc2C(=O)N2Cc3ccccc3C[C@H]2CN2CCOCC2)n1C` [Example 110, 5-(5-Chloro-2-{[(3S)-3-(morpholin-4-ylmethyl)-3,4-dihydroisoquinolin-2(1H)-yl]carbonyl}phenyl)-N-(4-cyanopyridin-2-yl)-N-(4-hydroxyphenyl)-1,2-dimethyl-1H-pyrrole-3-carboxamide hydrochloride], the figures for the IC50 (in test [1]; on Bcl-2 protein) were 39.5 nM and 8.5 nM, respectively.

As to `Cc1c(C(=O)N(c2ccc(O)cc2)c2cnn(C)c2)cc(-c2cc(Cl)ccc2C(=O)N2Cc3ccccc3C[C@H]2CN2CCN3CCOC[C@@H]3C2)n1C` [Example 115, 5-(5-Chloro-2-{[(3S)-3-[(9aS)-hexahydropyrazino[2,1-c][1,4]oxazin-8(1H)-ylmethyl]-3,4-dihydroisoquinolin-2(1H)-yl]carbonyl}phenyl)-N-(4-hydroxyphenyl)-1,2-dimethyl-N-(1-methyl-1H-pyrazol-4-yl)-1H-pyrrole-3-carboxamide dihydrochloride], the IC50 worked out at 18.3 nM in test [1] and 3.6 nM at Bcl-2 protein.

Consider `Cc1c(C(=O)N(c2ccc(O)cc2)c2cnn(C)c2)cc(-c2cc(Cl)ccc2C(=O)N2Cc3ccccc3C[C@H]2CN2CCN3CCOC[C@H]3C2)n1C` [Example 116, 5-(5-Chloro-2-{[(3S)-3-[(9aR)-hexahydropyrazino[2,1-c][1,4]oxazin-8(1H)-ylmethyl]-3,4-dihydroisoquinolin-2(1H)-yl]carbonyl}phenyl)-N-(4-hydroxyphenyl)-1,2-dimethyl-N-(1-methyl-1H-pyrazol-4-yl)-1H-pyrrole-3-carboxamide dihydrochloride], for which the IC50 in test [1] amounted to 47.8 nM; at Bcl-2 protein, 3.4 nM.

Take `Cc1c(C(=O)N(c2ccc(O)cc2)c2cnn(C3CC3)c2)cc(-c2cc(Cl)ccc2C(=O)N2Cc3ccccc3C[C@H]2CN2CCOCC2)n1C` [Example 122, 5-(5-Chloro-2-{[(3S)-3-(morpholin-4-ylmethyl)-3,4-dihydroisoquinolin-2(1H)-yl]carbonyl}phenyl)-N-(1-cyclopropyl-1H-pyrazol-4-yl)-N-(4-hydroxyphenyl)-1,2-dimethyl-1H-pyrrole-3-carboxamide]: the IC50 was 82.4 nM in test [1] and 3.4 nM on Bcl-2 protein.

`Cc1c(C(=O)N(c2ccc(O)cc2)c2cnn(C3COC3)c2)cc(-c2cc(Cl)ccc2C(=O)N2Cc3ccccc3C[C@H]2CN2CCOCC2)n1C` [Example 126, 5-(5-Chloro-2-{[(3S)-3-(morpholin-4-ylmethyl)-3,4-dihydroisoquinolin-2(1H)-yl]carbonyl}phenyl)-N-(4-hydroxyphenyl)-1,2-dimethyl-N-[1-(oxetan-3-yl) 1H-pyrazol-4-yl]-1H-pyrrole-3-carboxamide]: the IC50 came to 49.2 nM in test [1] and 4.2 nM at Bcl-2 protein.

In the case of `Cc1c(C(=O)N(c2ccc(O)cc2)c2cnn(C3CCOC3)c2)cc(-c2cc(Cl)ccc2C(=O)N2Cc3ccccc3C[C@H]2CN2CCOCC2)n1C` (stereo partly drawn) [Example 127, 5-(5-Chloro-2-{[(3S)-3-(morpholin-4-ylmethyl)-3,4-dihydroisoquinolin-2(1H)-yl]carbonyl}phenyl)-N-(4-hydroxyphenyl)-1,2-dimethyl-N-[1-(tetrahydrofuran-3-yl)-1H-pyrazol-4-yl]-1H-pyrrole-3-carboxamide hydrochloride], the 50% inhibitory concentration (IC50) in test [1] is 111 nM; on Bcl-2 protein, 5.3 nM.

As for `Cc1c(C(=O)N(c2ccccc2)c2cnc3c(c2)CCN3C)cc(-c2cc(Cl)ccc2C(=O)N2Cc3ccccc3C[C@H]2CN2CCOCC2)n1C` [Example 129, 5-(5-Chloro-2-{[(3S)-3-(morpholin-4-ylmethyl)-3,4-dihydroisoquinolin-2(1H)-yl]carbonyl}phenyl)-1,2-dimethyl-N-(1-methyl-2,3-dihydro-1H-pyrrolo[2,3-b]-pyridin-5-yl)-N-phenyl-1H-pyrrole-3-carboxamide], the IC50 in test [1] was determined as 275 nM; on Bcl-2 protein, 18.1 nM.

`Cc1c(C(=O)N(c2ccc(O)cc2)c2cnn(C)c2)cc(-c2cc(Cl)ccc2C(=O)N2Cc3ccccc3C[C@H]2CN2CC3(CCO3)C2)n1C` [Example 207, 5-(5-Chloro-2-{[(3S)-3-(1-oxa-6-azaspiro[3.3]hept-6-ylmethyl)-3,4-dihydroisoquinolin-2(1H)-yl]carbonyl}phenyl)-N-(4-hydroxyphenyl)-1,2-dimethyl-N-(1-methyl-1H-pyrazol-4-yl)-1H-pyrrole-3-carboxamide]: the figures for the IC50 (in test [1]; at Bcl-2 protein) were 32.2 nM and 4.6 nM, respectively.

Take `COc1cc(C(=O)N2Cc3ccccc3C[C@H]2CN2CCOCC2)c(-c2cc(C(=O)N(c3ccc(O)cc3)c3cnc4c(ccn4C)c3)c(C)n2C)cc1F` [Example 209, 5-(5-Fluoro-4-methoxy-2-{[(3S)-3-(morpholin-4-ylmethyl)-3,4-dihydroisoquinolin-2(1H)-yl]carbonyl}phenyl)-N-(4-hydroxyphenyl)-1,2-dimethyl-N-(1-methyl-1H-pyrrolo[2,3-b]pyridin-5-yl)-1H-pyrrole-3-carboxamide hydrochloride]: the IC50 in test [1] was found to be 25.4 nM; at Bcl-2 protein, 7.4 nM.

Consider `Cc1c(C(=O)N(c2ccc(O)cc2)c2cnn(C3CC3)c2)cc(-c2cc(F)ccc2C(=O)N2Cc3ccccc3C[C@H]2CN2CCOCC2)n1C` [Example 214, N-(1-Cyclopropyl-1H-pyrazol-4-yl)-5-(5-fluoro-2-{[(3S)-3-(morpholin-4-ylmethyl)-3,4-dihydroisoquinolin-2(1H)-yl]carbonyl}phenyl)-N-(4-hydroxyphenyl)-1,2-dimethyl-1H-pyrrole-3-carboxamide hydrochloride], for which the IC50 in test [1] was found to be 236 nM; at Bcl-2 protein, 6.3 nM.

Consider `COCCc1c(C(=O)N(c2ccc(O)cc2)c2cnc3c(c2)CCN3C)cc(-c2cc3c(cc2C(=O)N2Cc4ccccc4C[C@H]2CN2CCOCC2)OCO3)n1C` [Example 358, N-(4-Hydroxyphenyl)-2-(2-methoxyethyl)-1-methyl-N-(1-methyl-2,3-dihydro-1H-pyrrolo[2,3-b]pyridin-5-yl)-5-(6-{[(3S)-3-(morpholin-4-ylmethyl)-3,4-dihydroisoquinolin-2(1H)-yl]carbonyl}-1,3-benzodioxol-5-yl)-1H-pyrrole-3-carboxamide hydrochloride], for which the results for the IC50 (in test [1]; at Bcl-2 protein) were 165 nM and 14.8 nM, respectively.

`Cc1c(C(=O)N(c2ccncc2)c2ccc(O)cc2)cc(-c2cc(F)ccc2C(=O)N2Cc3ccccc3C[C@H]2CN2CCOCC2)n1C` [Example 384, 5-(5-Fluoro-2-{[(3S)-3-(morpholin-4-ylmethyl)-3,4-dihydroisoquinolin-2(1H)-yl]carbonyl}phenyl)-N-(4-hydroxyphenyl)-1,2-dimethyl-N-(pyridin-4-yl)-1H-pyrrole-3-carboxamide hydrochloride]: the IC50 in test [1] stood at 216 nM; on Bcl-2 protein, 9.7 nM.

As to `Cc1c(C(=O)N(c2ccc(O)cc2)c2cnc3c(ccn3C)c2)cc(-c2cc(F)ccc2C(=O)N2Cc3ccccc3C[C@H]2CN2CCOCC2)n1C` [Example 385, 5-(5-Fluoro-2-{[(3S)-3-(morpholin-4-ylmethyl)-3,4-dihydroisoquinolin-2(1H)-yl]carbonyl}phenyl)-N-(4-hydroxyphenyl)-1,2-dimethyl-N-(1-methyl-1H-pyrrolo[2,3-b]pyridin-5-yl)-1H-pyrrole-3-carboxamide hydrochloride], the IC50 in test [1] worked out at 28.7 nM; on Bcl-2 protein, 5.7 nM.

What is called IC50 is the midpoint of a concentration-inhibition curve.
